For 2 compounds, Mitochondrial toxicity risk and DILI classification results are on record in patent publication US20190079079A1, “3-D TISSUE CULTURE BASED METHOD TO ASSESS MITOCHONDRIAL IMPAIRMENT” (INSPHERO AG, priority 2016, published 2019).

In data set [1] the test system is 3D primary human hepatocytes microtissues (IPHH_02).
Method: (§1) B. Coating of Seahorse Spheroid plates • 20 uL of Poly-D-Lysine (100 ug/mL diluted in cell culture grade water) were added to each well of the Seahorse Spheroid plate (Incubation for 20min @ RT) • After coating, the Seahorse Spheroid plate was washed with 200 uL of sterile water and wash was removed (Washing step repeated once) • Seahorse Spheroid plate has been air dried for a few minutes
(§2) D. Seahorse XF Analyzer Run • While cell incubation fill up the ports of the cartridge according to the Seahorse manufacturer's protocol • Setup groups and parameters for the measurement (basal: 7 cycles, oligomycin 2 uM: 6 cycles, FCCP 0.5 uM: 3 cycles, FCCP 1 uM: 3 cycles, Rot/AA 0.5 uM: 9 cycles) • Start the measurement
(§3) DILI classification: Drug-induced liver injury according to Gustafsson et al, 2014 (N=negative, P=positive). CMax=concentration of candidate compound used in Gustafsson et al, 2014; CTop=concentration of candidate compound used herein; IC50CV/Cyt determined by the CellTiter-Glo Luminescent Cell Viability Assay (Promega, Madison, US) as disclosed herein, IC50MTSRR determined as inhibition on spare respiratory capacity (SPARE), as disclosed herein; MOS: Margin of safety; High Mito-toxic risk: IC5O_MTSRR<0.75×IC5O_CV/CYT; Low Mito-toxic risk: IC5O_MTSRR<IC5O_CV/CYT and IC5O_MTSRR≥0.75×IC5O_CV/CYT; No Mito-toxic risk: IC5O_MTSRR≥IC5O_CV/CYT
The conditions of data set [2]: categorized by Gustafsson et al; cited from earlier work.
For data set [3], the system named is 3D primary human hepatocytes microtissues (IPHH_02). Kind of data set: Seahorse XF Analyzer measurement of spare respiratory capacity (microtissue-specific respiration rate, MTSRR) after 48 h compound exposure. The following applies: High: IC50_MTSRR<0.75×IC50_CV/CYT; Low: IC50_MTSRR<IC50_CV/CYT and ≥0.75×IC50_CV/CYT; No: IC50_MTSRR≥IC50_CV/CYT (CV/CYT by CellTiter-Glo). On the technique in general: ATP-based viability assays read luminescence as a measure of living cells.
Method: as §1, §2, §3

Counter-ions that a name gives are not always drawn. Like-named read-outs stand apart in the source and are kept apart here.

On to `O=c1[nH]c(=O)n([C@@H]2O[C@H](CO)[C@@H](O)[C@@H]2F)cc1I` [Fialuridine], for which the Mitochondrial toxicity risk entry in data set [1] is “not have specific mitochondrial toxicity”. Also, the DILI classification entry in data set [2] was “liver toxic”.
For `CN(C)C(=N)N=C(N)N` [Metformin HCl], the DILI classification result in data set [2] was “not liver toxic”. In addition, the Mitochondrial toxicity risk entry in data set [3] is reported as “low mitochondrial toxicity”.
